Measured values from US20110081362A1, “TREATMENT OF CANCER” (THE BRIGHAM AND WOMEN'S HOSPITAL, INC., priority 2008, published 2011).
“Also recorded” adds a separate entry of the source.

Assays:
MDM2 and p21 = assay: Western blot of MDM2 and p21 in response to nutlin-3; type: cell-based, human; details: 2 days post treatment
Description: D. Top, Western blots of MDM2 protein knockdown in HCC1954 cells and HMECs by MDM2 shRNAs (4 days post-infection) as indicated in FIG. 4E.
The following primary and secondary antibodies were used for immunoblotting with the indicated dilutions: rabbit anti-Rbx1 and mouse anti-PRPS2 (1:500, Abcam), rabbit anti-MYPT1 (PPP1R12A gene product, 1:500, Upstate), mouse anti-tubulin and rabbit anti-GAPDH (1:2000, Sigma), mouse anti MDM2 (1:500, Santa Cruz), rabbit anti-BUB1 (1:500, Bethyl), mouse anti-p53 DO-1 and mouse anti-p21 (1:500, Calbiochem), goat anti-rabbit-HRP (1:5000, Jackson ImmunoResearch), and goat anti-mouse-HRP (1:5000, Jackson ImmunoResearch). Positive and negative siRNA controls, including siLUC, siTOX, siGLO duplexes and a PLK1 SMARTpool, were purchased from Dharmacon.

[1] = system: HMECs, HCT116, HCC1954 and DLD-1 cells; assay: Cell viability after nutlin-3 treatment; type: cell-based, human; details: 4 days of nutlin-3 treatment; HMECs and HCT116 p53 wild-type, HCC1954 and DLD-1 p53 mutant
Procedure: Cell viability is reflective of their p53 status (HMECs and HCT116 cells, p53 wild-type; HCC1954 and DLD-1 cells, p53 mutant). Cell viability was measured after 4 days of nutlin-3 treatment (*, P<0.05). ctrl, control.
Cells were infected in triplicate in 96-well or 24-well plates with retroviruses of individual shRNAs as described above, and the media was replaced 24 h after infection. On days 2, 6, or 9 post-infection, cell viability was measured using CellTiter-Glo reagent (Promega) per manufacturer's instruction on a Wallac Victor2 plate reader (Perkin Elmer).

## COc1ccc(C2=N[C@@H](c3ccc(Cl)cc3)[C@@H](c3ccc(Cl)cc3)N2C(=O)N2CCNC(=O)C2)c(OC(C)C)c1 [nutlin-3]
MDM2 and p21
  MDM2 and p21 protein induction: MDM2 and p21 induction
[1]
  Cell viability, sensitivity to nutlin-3: recapitulating the sensitivity of these cells to MDM2 inactivation; also recorded: Differential sensitivity of the four cell lines
